This is an account of results in ChEMBL document CHEMBL4431301, “The Medicinal Chemistry of Dengue Virus” (J Med Chem, 2016).

Structures are written as SMILES. Bounds are passed on as bounds.

The nature of series [1]: Inhibition of yeast alpha-glucosidase by double reciprocal plot method. Details: species or system Saccharomyces cerevisiae.
Series [2] in a line: Inhibition of N-terminal GST tagged recombinant Dengue virus 3 N-7 methyltransferase expressed in Escherichia coli BL21 cells by scintillation counting analysis. Details: species or system dengue virus type 3.
The target of series [3] is Nonstructural protein 5 (Dengue virus, UniProt V5TFZ2). Briefly: Inhibition of N-terminal GST tagged recombinant Dengue virus 3 2'-O methyltransferase expressed in Escherichia coli BL21 cells by scintillation counting analysis. Details: species or system dengue virus type 3.
Series [4] relates to dengue virus type 2. The series can be described thus: Antiviral activity against Dengue virus 2 NGC infected in HeLa cells assessed as reduction in viral RNA replication after 48 hrs by luciferase assay. It is filed as functional, organism-based.
Series [5] has as its system dengue virus type 3. The series can be described thus: Antiviral activity against Dengue virus 3 34640 infected in human A549 cells assessed as reduction in viral titer after 48 hrs by plaque assay. It is filed as functional, organism-based. The settings on record: Dengue virus, 34640, A549, 48 h.
Series [6] concerns dengue virus type 1. Briefly: Antiviral activity against Dengue virus 1 West Pacific infected in human A549 cells assessed as reduction in viral titer after 48 hrs by plaque assay. It is filed as functional, organism-based. The settings on record: A549, 48 h.
Series [7] relates to dengue virus type 4. Briefly: Antiviral activity against Dengue virus 4 22713 infected in BHK21 cells assessed as reduction in viral titer after 48 hrs by plaque assay. The settings on record: Dengue virus, 22713, BHK-21, 48 h. It is filed as functional, organism-based.
Series [8] concerns dengue virus type 2. Briefly: Antiviral activity against Dengue virus 2 NGC infected in human A549 cells assessed as reduction in viral titer after 48 hrs by plaque assay. The format is functional, organism-based. The settings on record: A549, 48 h.
Series [9] concerns dengue virus type 3. Briefly: Antiviral activity against Dengue virus 3 863 infected in BHK21 cells after 48 hrs by CFI assay. The settings on record: Dengue virus, 863, BHK-21, 48 h. It is filed as functional, organism-based.
The test system of series [10] is dengue virus type 4. Briefly: Antiviral activity against Dengue virus 4 2270 infected in BHK21 cells after 48 hrs by CFI assay. It is filed as functional, organism-based. The settings on record: Dengue virus, 2270, BHK-21, 48 h.
The subject of series [11] is dengue virus type 1. Briefly: Antiviral activity against Dengue virus 1 2402 infected in BHK21 cells after 48 hrs by CFI assay. It is filed as functional, organism-based. The settings on record: Dengue virus, 2402, BHK-21, 48 h.
Series [12] relates to dengue virus type 2. Briefly: Antiviral activity against Dengue virus 2 3295 infected in BHK21 cells after 48 hrs by CFI assay. The settings on record: Dengue virus, 3295, BHK-21, 48 h. The format is functional, organism-based.
Series [13] concerns dengue virus type 2. Briefly: Antiviral activity against Dengue virus 2 PL046 infected in human A549 cells by immunofluorescence analysis. The format is functional, organism-based.
In series [14] the test system is dengue virus type 2. The series can be described thus: Antiviral activity against Dengue virus 2 PL046 infected in human WS1 cells by immunofluorescence analysis. The format is functional, organism-based.
In series [15] the test system is dengue virus type 2. Briefly: Antiviral activity against Dengue virus 2 PL046 infected in mouse J774A.1 cells by immunofluorescence analysis. The settings on record: PL046, J774.A1. It is filed as functional, organism-based.
Series [16] has as its system dengue virus type 2. Briefly: Antiviral activity against Dengue virus 2 PL046 infected in […] Hepa1-6 cells by immunofluorescence analysis. It is filed as functional, organism-based. The settings on record: PL046, Hepa1-6.
Series [17] concerns dengue virus type 2. The series can be described thus: Antiviral activity against Dengue virus 2 S221 infected in ADE AG129 mouse model assessed as protection against viral infection at 20 to 100 mg/kg, po administered thrice daily for 7 days starting 1 hr prior to viral challenge measured for 10 days. The format is functional.
For series [18], the system named is dengue virus type 2. The series can be described thus: Antiviral activity against Dengue virus 2 NGC infected in african green monkey Vero cells assessed as reduction in viral titer preincubated for 1 hr followed by viral infection measured after 5 days by immunoplaque assay. It is filed as functional, organism-based.
For series [19], the system named is dengue virus type 2. The series can be described thus: Antiviral activity against Dengue virus 2 NGC infected in african green monkey Vero cells assessed as reduction in viral titer at 17 uM after 44 hrs relative to control. The format is functional.
The subject of series [20] is dengue virus type 2. The series can be described thus: Antiviral activity against Dengue virus 2 NGC infected in african green monkey Vero cells assessed as reduction in viral titer at 6 uM after 44 hrs relative to control. It is filed as functional.
In series [21] the test system is dengue virus type 2. The series can be described thus: Antiviral activity against Dengue virus 2 infected in BHK21 cells assessed as reduction in virus replication after 24 hrs by renilla luciferase reporter gene assay. It is filed as functional, organism-based. The settings on record: BHK-21, 24 h. For orientation: A reporter such as luciferase makes a cellular process visible.

A short description of series [22]: Cytotoxicity against BHK21 cells after 24 hrs by CellTiter-Glo luminescent assay. The format is cell-based, Mesocricetus auratus, BHK-21. The settings on record: hamster. In general terms: Cellular ATP, detected with luciferase, serves as a proxy for viable cell number.
The subject of series [23] is dengue virus type 2. The series can be described thus: Antiviral activity against Dengue virus 2 infected in BHK21 cells assessed after 3 to 5 days by crystal violet staining based plaque assay. The format is functional, organism-based. The settings on record: BHK-21.
Series [24] has as its system dengue virus type 1. Briefly: Antiviral activity against Dengue virus 1 Western Pacific 74 infected in african green monkey Vero cells assessed as reduction in viral replication after 48 hrs by luciferase reporter gene assay. It is filed as functional, organism-based. The settings on record: Western Pacific 74, Vero.
Series [25] concerns West Nile virus. The series can be described thus: Antiviral activity against West Nile virus 3356 infected in african green monkey Vero cells assessed as reduction in viral titer after 42 hrs by plaque assay. The settings on record: West Nile virus, 3356, Vero. The format is functional, organism-based.

Nonstructural protein 5, sequence (V5TFZ2 whole entry): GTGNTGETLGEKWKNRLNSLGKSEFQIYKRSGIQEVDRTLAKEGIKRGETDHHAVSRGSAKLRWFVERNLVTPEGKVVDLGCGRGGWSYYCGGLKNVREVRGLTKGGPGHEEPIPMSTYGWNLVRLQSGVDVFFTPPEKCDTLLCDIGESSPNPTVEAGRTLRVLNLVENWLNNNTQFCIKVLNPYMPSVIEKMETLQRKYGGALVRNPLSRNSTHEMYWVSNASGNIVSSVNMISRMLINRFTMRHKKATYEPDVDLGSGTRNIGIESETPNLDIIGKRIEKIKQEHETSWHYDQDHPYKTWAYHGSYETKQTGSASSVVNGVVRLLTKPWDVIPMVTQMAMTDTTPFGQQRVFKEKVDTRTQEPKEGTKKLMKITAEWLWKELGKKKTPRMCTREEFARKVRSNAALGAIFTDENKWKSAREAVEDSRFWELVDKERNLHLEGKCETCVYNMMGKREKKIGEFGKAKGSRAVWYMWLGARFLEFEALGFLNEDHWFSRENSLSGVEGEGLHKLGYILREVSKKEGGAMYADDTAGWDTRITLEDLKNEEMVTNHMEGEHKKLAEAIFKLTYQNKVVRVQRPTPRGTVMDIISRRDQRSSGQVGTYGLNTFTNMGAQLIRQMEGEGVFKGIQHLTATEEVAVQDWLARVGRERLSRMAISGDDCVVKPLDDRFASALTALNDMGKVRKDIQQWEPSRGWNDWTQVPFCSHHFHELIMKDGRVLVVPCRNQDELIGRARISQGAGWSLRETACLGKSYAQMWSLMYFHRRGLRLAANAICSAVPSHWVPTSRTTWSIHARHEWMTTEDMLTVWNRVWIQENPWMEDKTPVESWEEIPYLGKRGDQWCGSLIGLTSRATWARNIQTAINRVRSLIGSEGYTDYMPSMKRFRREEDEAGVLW

For the compound `O=C(NC[C@H]1N[C@H](CO)[C@@H](O)[C@@H]1O)C1Cc2ccccc21` (stereo not given in full), in series [1], the Ki – broadly, a dissociation constant, usually derived from enzyme kinetics or from competition with a known ligand – came out at 0.053 µM.
For the compound `N[C@@H](CCSC[C@H]1O[C@@H](n2cnc3c(NCc4cccc(Cl)c4)ncnc32)[C@H](O)[C@@H]1O)C(=O)O`, the Ki in series [2] is 0.82 µM; in series [3], 0.17 µM.
With `O=C1C[C@]2(C(=O)Nc3ccc(Cl)cc32)c2cnn(Cc3ccc(Cl)cc3)c2N1`, the concentration giving a half-maximal response (EC50) (as a rule, the concentration that produces a half-maximal response) is 1.9 µM in [4]; 0.01 to 0.08 µM in series [5]; more than 20 µM in series [6]; more than 20 µM in series [7]; 0.01 to 0.08 µM in [8].
As to `CCCC(=O)O[C@H]1CN2CC[C@H](O)[C@@H]2[C@@H](O)[C@@H]1O` [CELGOSIVIR], the concentration giving a half-maximal response (EC50) is 0.22 to 0.68 µM in series [9], 0.22 to 0.68 µM in series [10], 0.22 to 0.68 µM in series [11] and 0.2 µM in [12].
Take `CCN(CCO)CCCC(C)Nc1ccnc2cc(Cl)ccc12` (stereo not given) [HYDROXYCHLOROQUINE]: the IC50 in series [13], in [14], in series [15] and in series [16] was 9.7 to 12.9 µM in each case.
For the compound `OC[C@@H]1[C@@H](O)[C@H](O)[C@@H](O)CN1CCCCCCCCC1CCCO1` (stereo not given in full), the Activity in series [17] stood at 100%. Besides, the EC50 in series [18] was found to be 21.7 µM.
Regarding `O=C(Nc1cccc(Cn2cc(-c3cccc(S(=O)(=O)Nc4ccccc4C(=O)O)c3)cn2)c1)c1ccc(C(=O)c2ccccc2)cc1`, the “fold change (FC)” value in series [19] was found to be 4.5; in series [20], 3.4.
For `CCN(CC)Cc1cc(Nc2ccnc3cc(Cl)ccc23)ccc1O` [AMODIAQUINE], the EC50 was found to be 7.41 µM in series [21] and 1.08 µM in [23]. Further, the midpoint of cytotoxicity in [22], the CC50 at 24 h, lay at 52.1 µM.
For `O=C(c1ccccc1)N1N=C(c2cccs2)CC1c1ccc(Cl)cc1` (stereo not given), the EC50 in series [24] amounted to 17 µM; in series [25] it was 28 µM.
